In PubChem BioAssay (NCI):
Several values for one entry are separate records, joined by “and”; a condition that tells them apart may be missing. Equal entries are not always repeated.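 Cells were grown in 96-well plates and exposed to each compound for 48 hours at five concentrations; endpoints were interpolated linearly between bracketing concentrations, or set to the highest concentration if not reached. GI50 marks 50% less growth. TGI: concentration producing complete growth inhibition.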

Experiments:
Assay in all cases: NCI anticancer screen, dose series, 48 h
OVCAR-5 ovarian = tested on: OVCAR-5 ovarian
MCF7 breast = tested on: MCF7 breast
SF-539 CNS = tested on: SF-539 CNS
SK-MEL-5 melanoma = tested on: SK-MEL-5 melanoma
786-0 renal = tested on: 786-0 renal
LOX IMVI melanoma = tested on: LOX IMVI melanoma
SR leukemia = tested on: SR leukemia
BT-549 breast = tested on: BT-549 breast
UACC-62 melanoma = tested on: UACC-62 melanoma
MDA-MB-435 = tested on: MDA-MB-435

Structure (SMILES)	TGI (OVCAR-5 ovarian)	TGI (MCF7 breast) [µM]	TGI (SF-539 CNS)	TGI (SK-MEL-5 melanoma)	TGI (786-0 renal)	TGI (LOX IMVI melanoma)	TGI (SR leukemia) [µM]	TGI (BT-549 breast) [µM]	TGI (UACC-62 melanoma)	TGI (MDA-MB-435) [µM]	GI50 (OVCAR-5 ovarian) [µM]	GI50 (SF-539 CNS) [µM]	GI50 (SK-MEL-5 melanoma) [µM]	GI50 (LOX IMVI melanoma) [µM]	GI50 (SR leukemia) [µM]	GI50 (UACC-62 melanoma) [µM]	GI50 (MCF7 breast) [µM]	GI50 (BT-549 breast) [µM]	GI50 (MDA-MB-435) [µM]
CN(C)C=Nc1c2c(nc3ccccc13)CCCC2	> 100 µM	> 100	> 100 µM	> 100 µM	> 100 µM	> 100 µM	> 100	> 100	> 100 µM	> 100	–	–	–	–	–	–	–	–	–
Cc1csc2c(=O)n(COCc3ccccc3)c(=O)[nH]c12	> 100 µM	> 100	> 100 µM	> 100 µM	> 100 µM	> 100 µM	> 100	> 100	–	> 100	–	–	–	–	–	–	–	–	–
Nc1nc(N)c2nc(CNc3ccc(C(=O)NC(CCNC(=O)c4ccccc4C(=O)O)C(=O)O)cc3)cnc2n1 (configuration not stated)	> 100 µM	> 100	–	> 100 µM	> 100 µM	> 100 µM	> 100	> 100	–	> 100	0.0863	0.0574	0.0853	0.00439	0.00433	–	–	–	–
CP(=O)(O)C(N)c1ccccc1 (configuration not stated)	> 100 µM	> 100	–	> 100 µM	> 100 µM	> 100 µM	> 100	> 100	> 100 µM	> 100	–	–	–	–	–	–	–	–	–
NC(CS)C(=O)NCCNc1ccc(NCCNC(=O)C(N)CS)c2c1C(=O)c1c(O)ccc(O)c1C2=O (configuration not stated)	1.58 µM and 0.718 µM	1.21	0.728 µM and 0.193 µM	1.33 µM and 0.373 µM	0.0831 µM and 0.0438 µM	0.205 µM and 0.165 µM	0.232	1.42	0.516 µM and 0.249 µM	1.86	0.0756	–	0.0231	0.0149	–	0.0196	–	–	–
CCOC(=O)c1cc([N+](=O)[O-])cc([N+](=O)[O-])c1Sc1ncnc2nc[nH]c12	27.6 µM	4.08	15.7 µM	27.7 µM	2.07 µM	4.16 µM	> 100	8.59	21.3 µM	4.27	–	–	–	–	–	–	–	–	–
COC1=CC(c2ccc[nH]2)=N/C1=C\c1[nH]c(C)c(C)c1CCC(=O)OCc1ccccc1	7.07 µM	2.19	–	–	–	0.705 µM	0.618	2.9	–	1.64	0.709	–	–	0.217	0.175	–	0.293	0.378	0.44
CN1C(=O)[C@@H]2[C@@H]3c4ccccc4N[C@@H]3c3[nH]c4ccccc4c3[C@@H]2C1=O	64.2 µM	> 100	39.3 µM	25 µM	–	46.6 µM	59.3	53.6	32.4 µM	64.7	–	–	–	–	–	–	–	–	–
Cc1ccc(Cc2n[nH]c(=O)n2N2C(=O)c3ccccc3C2=O)cc1	> 100 µM	> 100	> 100 µM	> 100 µM	> 100 µM	> 100 µM	> 100	> 100	> 100 µM	> 100	–	–	–	–	–	–	–	–	–
COc1ccccc1[C@@H]1CCC2CC[C@@H](c3ccccc3OC)[N+]21Cc1ccccc1 (some centres not stated)	12.9 µM	12.2	–	1.64 µM	15.4 µM	13.2 µM	7.07	7.63	–	10.5	–	–	–	–	–	–	–	–	–
CN(C)C1(c2cc3ccccc3s2)CCCCC1	> 100 µM	> 100	> 100 µM	33.3 µM	49.8 µM	60.9 µM	46.5	> 100	60.6 µM	> 100	–	–	–	–	–	–	–	–	–
N#CCN1CCCN(CC#N)CCN(CC#N)CCCN(CC#N)CC1	> 100 µM	> 100	> 100 µM	> 100 µM	> 100 µM	65.8 µM	> 100	> 100	> 100 µM	> 100	–	–	–	–	–	–	–	–	–
O=C1C=CC(=O)[C@H]2C3C=CC(C4C3C3(Cl)C(Cl)=C(Cl)[C@]4(Cl)C3(Cl)Cl)[C@@H]12 (some centres not stated)	19.7 µM	13.4	17.9 µM	15.3 µM	18.4 µM	11.7 µM	9.28	19.2	21 µM	7.02	–	–	–	–	–	–	–	–	–
CCOP(=O)(OCC)C(C)(CC)/N=C(\N)NC#N (configuration not stated)	> 100 µM	> 100	> 100 µM	> 100 µM	> 100 µM	> 100 µM	> 100	> 100	> 100 µM	> 100	–	–	–	–	–	–	–	–	–
O=C(NCCC1CN(S(=O)(=O)C(F)(F)F)c2ccccc21)OCc1ccccc1 (configuration not stated)	> 100 µM	> 100	–	> 100 µM	> 100 µM	–	> 100	> 100	> 100 µM	> 100	–	–	–	–	–	–	–	–	–
CC1(C)OC2OC(C(=O)c3ccccc3)C3OC(C)(C)OC3C2O1 (configuration not stated)	> 100 µM	> 100	> 100 µM	> 100 µM	> 100 µM	> 100 µM	> 100	> 100	> 100 µM	> 100	–	–	–	–	–	–	–	–	–
COc1cc(C(=O)N(C(=O)N2CCCCC2)c2ccccc2)cc(OC)c1OC	> 100 µM	> 100	> 100 µM	> 100 µM	> 100 µM	> 100 µM	> 100	> 100	> 100 µM	> 100	–	–	–	–	–	–	–	–	–
CN(C)CCCN=c1c2ccccc2n(C)c2[nH]c(=O)n(C)c(=O)c12	43.7 µM	26.6	22.4 µM	18.4 µM	> 64.8 µM	39.1 µM	9.3	36.8	24.7 µM	16.8	–	–	–	–	–	–	–	–	–
O=C1c2c(F)c(F)c(F)c(F)c2SC2=Nc3cccc4cccc(c34)N12	30.9 µM	16	14 µM	28.4 µM	16.9 µM	7.79 µM	15.2	23.9	11 µM	12.8	–	–	–	–	–	–	–	–	–
CC(=O)CC12NC(=O)N(C)N=C1N(C)C(=O)N(C)C2=O (configuration not stated)	> 100 µM	> 100	72.9 µM	–	> 100 µM	40.8 µM	> 100	> 100	73.3 µM	31	–	–	–	–	–	–	–	–	–

Structure (SMILES)	TGI (OVCAR-5 ovarian)	TGI (MCF7 breast) [µM]	TGI (SF-539 CNS)	TGI (SK-MEL-5 melanoma)	TGI (786-0 renal)	TGI (LOX IMVI melanoma)	TGI (SR leukemia) [µM]	TGI (BT-549 breast) [µM]	TGI (UACC-62 melanoma)	TGI (MDA-MB-435) [µM]	GI50 (OVCAR-5 ovarian) [µM]	GI50 (SF-539 CNS) [µM]	GI50 (SK-MEL-5 melanoma) [µM]	GI50 (LOX IMVI melanoma) [µM]	GI50 (SR leukemia) [µM]	GI50 (UACC-62 melanoma) [µM]	GI50 (MCF7 breast) [µM]	GI50 (BT-549 breast) [µM]	GI50 (MDA-MB-435) [µM]
c1ccc(Sc2nc(Sc3ccccc3)nc(Sc3ccccc3)n2)cc1	> 100 µM	> 100	> 100 µM	> 100 µM	–	> 100 µM	> 100	> 100	> 100 µM	> 100	–	–	–	–	–	–	–	–	–
COC(=O)C1=C(C)NC2=C(C(=O)c3ccccc32)C1c1cn[nH]c1-c1ccccc1 (configuration not stated)	> 100 µM	> 100	> 100 µM	> 100 µM	> 100 µM	–	87.4	> 100	> 100 µM	> 100	–	–	–	–	–	–	–	–	–
COc1cc(/C=C/C2=NN(c3cccc(S(=O)(=O)O)c3)C3(C2)SCC(=O)N3c2nc3ccccc3s2)cc(OC)c1OC (configuration not stated)	> 100 µM	> 100	> 100 µM	> 100 µM	37.5 µM	40.7 µM	66.2	> 100	> 100 µM	50.2	–	–	–	–	–	–	–	–	–
COC(=O)[C@@H](NC(=O)c1ccc(CNC(=O)/C(C)=C/c2ccccc2)cc1)C(C)C	> 100 µM	> 100	> 100 µM	> 100 µM	> 100 µM	> 100 µM	> 100	> 100	> 100 µM	> 100	–	–	–	–	–	–	–	–	–
O=c1cc(NNc2cccc(F)c2)[nH]c(=S)[nH]1	> 100 µM	> 100	> 100 µM	> 100 µM	> 100 µM	> 100 µM	> 100	> 100	–	> 100	–	–	–	–	–	–	–	–	–
NCCN(CCN)/[N+]([O-])=N/O	> 100 µM	> 100	> 100 µM	> 100 µM	> 100 µM	> 100 µM	> 100	> 100	> 100 µM	> 100	–	–	–	–	–	–	–	–	–
CC(=O)N1CCN(CCCCN2c3ccccc3Sc3cc(N=[N+]=[N-])ccc32)CC1	26.6 µM	28.9	31.8 µM	–	29.5 µM	30.9 µM	26.5	31.6	9.21 µM	29	–	–	–	–	–	–	–	–	–
O=C1C(c2c(O)[nH]c3ccc(I)cc23)=Nc2ccccc21	57.1 µM	15.7	23.3 µM	10.8 µM	4.39 µM	34.4 µM	> 100	29.2	21.3 µM	> 100	–	–	–	–	–	–	–	–	–
CCOC(=O)[C@H](CO)Nc1c(O)c2c(c(O)c1Cl)C(=O)C=CC2=O	> 10 µM	> 10	> 10 µM	> 10 µM	> 10 µM	> 10 µM	> 10	> 10	> 10 µM	> 10	–	–	–	–	–	–	–	–	–
CCOC(=O)C(NC(=O)c1ccccc1)(Nc1ccc(S(=O)(=O)Nc2ccc(OC)nn2)cc1)C(F)(F)F (configuration not stated)	> 100 µM	> 100	> 100 µM	> 100 µM	> 100 µM	> 100 µM	> 100	> 100	> 100 µM	> 100	–	–	–	–	–	–	–	–	–
CC1(C)OC2[C@@H](CO[C@@]3([C@H]4OC(C)(C)O[C@@H]4CO)OC(C)(C)O[C@@H]23)O1 (some centres not stated)	> 100 µM	> 100	–	> 100 µM	> 100 µM	> 100 µM	> 100	> 100	> 100 µM	> 100	–	–	–	–	–	–	–	–	–
O=C(NCCCc1cn[nH]c(=O)n1)c1cccc2nc3ccccc3nc12	> 100 µM	> 100	> 100 µM	> 100 µM	> 100 µM	> 100 µM	> 100	> 100	> 100 µM	> 100	–	–	–	–	–	–	–	–	–
COc1cc(C2c3cc4c(cc3OC(NNc3ccccc3)C2C)OCO4)cc(OC)c1O (configuration not stated)	18 µM	13.3	2.98 µM	3.68 µM	15.6 µM	19 µM	29.7	28	6.03 µM	3.96	–	–	–	–	–	–	–	–	–
N#Cc1c(O)c(C=O)c(=O)n2c1[nH]c1ccccc12	> 100 µM	> 100	> 100 µM	> 100 µM	> 100 µM	> 100 µM	> 100	> 100	> 100 µM	> 100	–	–	–	–	–	–	–	–	–
COc1ccc(N2C(=O)C(=O)C3(CCCCC3)C2=O)c(OC)c1OC	> 100 µM	> 100	> 100 µM	> 100 µM	> 100 µM	> 100 µM	> 100	> 100	> 100 µM	> 100	–	–	–	–	–	–	–	–	–
CNC(=O)c1cc(Oc2cccc3nc(NC(=O)Nc4ccc(F)cc4F)ccc23)ccn1	–	> 50	–	> 50 µM	–	> 50 µM	> 50	> 50	–	> 50	–	–	1.02	1.68	0.41	–	1.66	> 50	1.5
O=C(CBr)NCCc1c[nH]c2ccccc12	3.47 µM	4.72	3.52 µM	2.46 µM	2.74 µM	2.79 µM	1	3.83	3.29 µM	3.34	–	–	–	–	–	–	–	–	–
Cc1sc2nc3n(c(=O)c2c1C)N=C(c1ccccc1)CS3	> 100 µM	> 100	> 100 µM	> 100 µM	> 100 µM	> 100 µM	> 100	> 100	> 100 µM	> 100	–	–	–	–	–	–	–	–	–
COc1cc2nc3n(c(=O)c2cc1OC)CCCCC3	> 100 µM	> 100	–	> 100 µM	> 100 µM	> 100 µM	> 100	> 100	> 100 µM	> 100	–	–	–	–	–	–	–	–	–
CC(=O)OC12OC(C)(C3C(=O)N(c4ccccc4)C(=O)C31)N(c1ccccc1)C2=O (configuration not stated)	> 100 µM	> 100	> 100 µM	> 100 µM	> 100 µM	> 100 µM	> 100	> 100	> 100 µM	> 100	–	–	–	–	–	–	–	–	–
